Measurements published in patent publication US6485924B2, “Method for identifying inhibitors of cytokinesis” (Boehringer Ingelheim International GmbH, priority 1999, dated 2002).

Legend:
XSepA [1] = biological target: T1, XSepA (Xenopus laevis, UniProt Q9DE33); test: GTP filter binding assay; conditions: for ability of cold nucleotide to compete with the radiolabeled guanine nucleotide: data not shown
T1 construct: made in house; host or cells: E. coli BL21(DE3)
T1 sequence (Q9DE33 1-356): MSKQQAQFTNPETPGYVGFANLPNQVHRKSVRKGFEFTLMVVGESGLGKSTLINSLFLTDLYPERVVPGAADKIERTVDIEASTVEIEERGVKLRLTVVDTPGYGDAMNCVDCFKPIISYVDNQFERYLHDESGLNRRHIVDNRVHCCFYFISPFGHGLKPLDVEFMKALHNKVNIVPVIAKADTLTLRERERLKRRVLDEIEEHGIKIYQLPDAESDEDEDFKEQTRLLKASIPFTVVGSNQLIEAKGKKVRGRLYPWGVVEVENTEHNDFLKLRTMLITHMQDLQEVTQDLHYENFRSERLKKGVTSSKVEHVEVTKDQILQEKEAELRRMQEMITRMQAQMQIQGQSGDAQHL
Procedure: For GTP binding, 1 μM of XSepA (or Δcc-SepA) in S-buffer was incubated with 0.1 mg/ml BSA, 5 mM MgCl2 and 4.4 μM ^3H-GTP (4.60 Ci/mmol, 1 mCi/ml; Amersham). At time intervals, aliquots of the reaction were diluted in cold wash buffer (20 mM Tris pH 8.0, 50 mM NaCl, 5 mM MgCl2) and filtered through pre-wetted nitrocellulose circles (Schleicher and Schuell) Filters were washed with 10 ml of wash buffer, dried, and the retained radioactivity quantified in a scintillation counter.
The ability of recombinant XSepA to bind guanine nucleotide was tested by using a filter binding assay. […] To assay for GTP hydrolysis, XSepA was incubated with limiting amounts of [α-^32P]GTP and the production of radioactive GDP was followed by thin layer chromatography. […] FIGS. 1C and 1D show time courses of GTP binding and hydrolysis by XSepA and Δcc-SepA. Recombinant protein (1 μM) was incubated with an excess of [^3H]GTP to quantify nucleotide binding, or with sub-stoichiometric amounts of [α-^32P]GTP to detect nucleotide hydrolysis. (C) GTP binding as determined by a filter-binding assay. (D) TLC plate showing generation of radioactive GDP from GTP. Aliquots of the reaction were quenched in a denaturing solution at the indicated time, and the nucleotide content was resolved by TLC. BSA (0.1 mg/ml) was used as a negative control in both experiments.)

XSepA [2] = biological target: T1, XSepA; test: Filament assembly / polymerization followed by immunofluorescence microscopy; assay type: biochemical; conditions: for filamentous structures observed: control nucleotide used instead of GTP, 30 minutes; for length of the lag phase of polymerization: 1 mg/ml XSepA, 0.1 mM nucleotide; for critical concentration for XSepA polymerization: 30 min incubation with nucleotide
Procedure: (§1) Polymerization reactions were carried out in S-buffer in the presence of 5 mM MgCl2 and GTP, GTP-γ-S, GDP or ATP (Gibco). Before nucleotide addition, all samples were pre-cleared in an ultracentrifuge (see below). Aliquots of the reaction were diluted to a final septin concentration of 3.3 μg/ml, and 100 μl drops spotted on glass coverslips for 1 min. Before use, coverslips were soaked with an acetone solution of 0.5% 3-aminopropyltriethoxy-silane (Sigma), washed in acetone and air-dried. Following sample application, the coverslips were washed with 2 ml S-buffer, fixed in cold methanol for 10 min and stained with a polyclonal rabbit antibody raised against an N-terminal peptide of XSepA (M. Glotzer and T. Hyman, in preparation). Secondary antibodies were DTAF-coupled anti-rabbit (Dianova). Images were acquired using a Zeiss Axioplan II microscope and Adobe Photoshop software. Processing and analysis of immunofluorescence images was performed on a Macintosh computer using the public domain NIH Image program (developed at the U.S. National Institutes of Health and available at http://rsb.info.nih.gov/nih-image). Thresholded binary images were generated, and particle length was obtained by measuring the major axis of the best fitting ellipse. Particles with length <0.4 μm were not included in the analysis. Although filaments tended to be straight, this procedure results in underestimation of the length of curved filaments. For sedimentation assays, 20 μl polymerization reactions containing 1 mg/ml septin were pre-cleared in an ultracentrifuge at 279000×g for 15 min at 4° C. Precleared samples were incubated with nucleotide at room temperature for 30 min and spun through a 50% glycerol cushion at 279000×g for 15 min at 25° C.
Filament forming proteins like actin, tubulin and FtsZ polymerize in a nucleotide-dependent fashion. To test whether septin filament assembly is regulated by a similar mechanism, XSepA was incubated with GTP (or its slowly hydrolyzable analogue GTP-γ-S) for 30 minutes and spotted onto glass coverslips. After the coverslips were fixed and stained with anti-XSepA antibody, filamentous structures of up to 7 μm in length were observed. […] FIGS. 2A and 2B depict the GTP-dependent assembly of XSepA and Δcc-SepA filaments. Top panels: Immunostainings of septin preparations (1 mg/ml) incubated with 0.1 mM of the indicated nucleotide for 30 min and diluted in S-buffer prior to fixation. Filamentous structures are observed with both full-length (A) and Δcc-SepA (B) only in the presence of GTP or GTP-γ-S. Bottom panels: Identical reactions were centrifuged through a 50% glycerol cushion at 279000×g for 15 min. Supernatants (S) and pellets (P) were collected and resolved by gel electrophoresis.
To gain insight into the polymerization mechanism of XSepA, the kinetics of the filament formation reaction was followed using immunofluorescence microscopy. At different times after GTP addition, aliquots of septin protein were processed for immunofluorescence as already described. For each time point, individual septin filaments were counted and their lengths measured. The length of all the filaments present in a field was added, and the result (proportional to the polymer mass) was plotted against time. Immunofluorescence images were acquired as described and the length of the filaments was measured (see Methods section). The relative polymer mass was obtained by adding the length of all the filaments present in a field. Each point represents data from four random fields. Only filaments of ≧400 nm in length were considered in the analysis. (A) Time course of filament assembly. At different times following nucleotide addition to 0.1 mM (t=0 min) aliquots of a reaction containing 1 mg/ml XSepA were diluted 300-fold and spotted on coverslips for 1 min before washing and fixation. (B) Determination of the critical concentration for polymerization. […]

XSepA [3] = biological target: T1, XSepA; test: Filament sedimentation assay through glycerol cushion; assay type: biochemical; conditions: 1 mg/ml septin, 0.1 mM nucleotide, 30 min, 279000×g
Procedure: as §1, with “Although filaments tended to be straight, this procedure results in underestimation of the length of curved filaments. For sedimentation assays, 20 μl polymerization reactions containing 1 mg/ml septin were pre-cleared in an ultracentrifuge at 279000×g for 15 min at 4° C. Precleared samples were incubated with nucleotide at room temperature for 30 min and spun through a 50% glycerol cushion at 279000×g for 15 min at 25° C.” left out

XSepA filaments = biological target: T2, XSepA filaments (Xenopus laevis, UniProt Q9DE33); test: Dilution-induced filament depolymerization; assay type: biochemical; conditions: 20 min after 600-fold dilution into buffer
T2 construct: made in house; host or cells: E. coli BL21(DE3)
T2 sequence (Q9DE33 1-356): T1 sequence (Q9DE33 1-356)
Procedure: To gain insight into the polymerization mechanism of XSepA, the kinetics of the filament formation reaction was followed using immunofluorescence microscopy. At different times after GTP addition, aliquots of septin protein were processed for immunofluorescence as already described. For each time point, individual septin filaments were counted and their lengths measured. The length of all the filaments present in a field was added, and the result (proportional to the polymer mass) was plotted against time. Immunofluorescence images were acquired as described and the length of the filaments was measured (see Methods section). The relative polymer mass was obtained by adding the length of all the filaments present in a field. Each point represents data from four random fields. Only filaments of ≧400 nm in length were considered in the analysis. (A) Time course of filament assembly. […] Polymer content was determined after 30 min incubation. […] In (B) and (C) a curve was fitted to the data points where filaments were detected.
To address the role of GTP hydrolysis in septin filament formation, the polymerization kinetics of XSepA in the presence of a slowly hydrolysable GTP analogue, GTP-γ-S, was studied. […] To investigate directly whether nucleotide hydrolysis promotes disassembly, filaments assembled with GTP or GTP-γ-S were diluted 600-fold into buffer and depolymerization rates were determined. […]

[4] = literature values; tubulin: pure, in glycerol buffer; cited from earlier work

| Compound | ability of cold nucleotide to compete with the radiolabeled guanine nucleotide (XSepA [1]) | filamentous structures observed (XSepA [2]) | sedimentable fraction of septin after incubation with nucleotide (XSepA [3]) | length of the lag phase of polymerization (XSepA [2]) [min] | critical concentration for XSepA polymerization (XSepA [2]) [mg/mL] | further results |
| --- | --- | --- | --- | --- | --- | --- |
| Nc1nc2c(ncn2[C@@H]2O[C@H](COP(=O)(O)OP(=O)(O)OP(=O)(O)O)[C@@H](O)[C@H]2O)c(=O)[nH]1 [GTP, guanosine triphosphate] | able to compete | – | increased significantly | 5 | 0.5 | GTP binding plateau (XSepA [1]; filter binding, excess [3H]GTP): 0.4-0.5 moles GTP/moles of XSepA; time to essentially complete maximum of nucleotide binding (XSepA [1]; limiting concentration of nucleotide, not shown): ≤ 5 min; depolymerization after dilution (XSepA filaments): essentially complete |
| Nc1nc2c(ncn2[C@@H]2O[C@H](COP(=O)(O)OP(=O)(O)OP(O)(O)=S)[C@@H](O)[C@H]2O)c(=O)[nH]1 [GTP-γ-S] | – | – | increased significantly | 3 | 0.2 | filaments still present (XSepA filaments): ca. 30 % of their initial level |
| actin | – | – | – | – | – | critical concentration for polymerization [4]: ~0.2 µM |

The next lines start with results.

| ability of cold nucleotide to compete with the radiolabeled guanine nucleotide (XSepA [1]) | filamentous structures observed (XSepA [2]) | Compound | sedimentable fraction of septin after incubation with nucleotide (XSepA [3]) | length of the lag phase of polymerization (XSepA [2]) [min] | critical concentration for XSepA polymerization (XSepA [2]) [mg/mL] | further results |
| --- | --- | --- | --- | --- | --- | --- |
| not | This was not the case | Nc1ncnc2c1ncn2[C@@H]1O[C@H](COP(=O)(O)OP(=O)(O)OP(=O)(O)O)[C@@H](O)[C@H]1O [ATP] | – | – | – | – |
| not | This was not the case | Nc1nc2c(ncn2[C@@H]2O[C@H](COP(=O)(O)OP(=O)(O)O)[C@@H](O)[C@H]2O)c(=O)[nH]1 [GDP] | – | – | – | – |
